Assay results published in PubChem BioAssay AID179 (DTP/NCI, 2004).
“And” between values parts separate entries of the source, which are not always exact repeats. Equal entries are not always repeated. The source made the active and inactive calls.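 How the source made its calls: active means compounds giving half or more protection of infected cells from virus-caused growth loss, again on retest; inactive means the rest.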 Where a SMILES comes first, the peptide text is derived from it. Bridges are numbered along the chain shown (N, C = ends). Roman numbers before positions name the chains, in order.

System: CEM cells HIV-1 protection, formazan growth assay
Experiment: NCI AIDS Antiviral Assay
Settings: for IC50: measured here: growth of uninfected CEM cells
How it was run: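 Protection of CEM cells against HIV-1 measured as cell growth via soluble formazan read-out, with five concentrations tested on both infected and uninfected cells; failure to protect may reflect toxicity.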

Structure (SMILES)	EC50 [µM]	IC50	outcome
CC(C)N(C(C)C)P1O[PH+](N(C(C)C)C(C)C)OP(N(C(C)C)C(C)C)O[PH+](N(C(C)C)C(C)C)O1.[C-]#[O+].[C-]#[O+].[C-]#[O+].[C-]#[O+].[W] (stereo not given)	> 200	> 200 µM	–
CCN(Cc1cccc(S(=O)(=O)O)c1)c1ccc(C(=C2C=CC(=[N+](CC)Cc3cccc(S(=O)(=O)O)c3)C=C2)c2ccc(S(=O)(=O)O)cc2)cc1	> 112	79.4 µM	–
COC(=O)c1ccccc1NC(=O)C(=O)Cc1nc2c3c(ccc2[nH]c1=O)C(=O)c1ccccc1C3=O	> 20.4	> 20.4 µM	–
Cc1cc(C(O)(c2cc(C)c(O)c(C(=O)O)c2)c2cc(C)c(O)c(C(=O)O)c2)cc(C(=O)O)c1O	> 3.72	> 3.72 µM	–
O=c1oc2cccc(O)c2c(O)c1Cc1ccccc1	> 200	> 200 µM	–
CC(=O)OCC1OC(n2c(-c3ccccc3)c(C(C)=O)c(-c3cccc4ccccc34)c(C#N)c2=S)C(OC(C)=O)C(OC(C)=O)C1OC(C)=O (stereo not given)	> 200	85.1 µM and 117 µM	–
C[N+]1(C)CCCC1C(=O)[O-] (stereo not given)	> 1740	> 1740 µM	–
O=C1c2ccccc2C(=O)N1N1C(=O)c2ccccc2C1=O	> 200	> 200 µM	–
C/C=C1\CN2CCC34c5ccccc5N5C(=O)CCC(C1CC23)C54 (stereo not given)	> 42.7	> 42.7 µM	–
CSc1cnnc2ccccc12	> 603	263 µM	–
CC/C=N\N=C(N)N	> 200	30.2 µM	–
CCOC(=O)CCC(NC(=O)OCc1ccccc1)C(=O)NC(CCC(=O)OCC)C(=O)NC(CCC(=O)OCC)C(=O)NNC(=O)OC(C)(C)C (stereo not given)	> 200	> 200 µM	–
C[N+]1=C(c2ccc[n+](C)c2/C=N/O)OCC1(C)C	> 501	> 501 µM	–
COc1cc([C@@H]2c3cc(O)c(OC)cc3C=C(C(N)=O)[C@H]2C(N)=O)ccc1O	> 0.2	0.0102 µM	–
O=c1[nH]c2nc3ccccc3c(=O)n2/c1=C/c1ccc(O)cc1	> 200	52.5 µM	–
CC(=O)Oc1ccccc1C(=O)O	> 380	> 380 µM	–
COC(=O)C1=COC(C)C2C[n+]3ccc4c([nH]c5ccccc54)c3CC12 (stereo not given)	> 200	> 200 µM	–
O=C1CCCCCCCCCC(=O)Nc2ccccc2-c2ccccc2N1	–	–	inactive
Clc1ccc(NC(Nc2ccc(Cl)cc2)C(Cl)(Cl)Cl)cc1	–	–	inactive
COc1ccc(/C=C(\C#N)c2cccnc2)cc1OC	> 25.1	23.4 µM	–
NC(=O)C(=O)C1C(=O)N(c2ccccc2)N=C1N (stereo not given)	–	–	inactive

Structure (SMILES)	EC50 [µM]	IC50	outcome
O=S1(=O)OCCCCO1	> 1620	> 1620 µM	–
COc1cccc(CN2CC(C)N(N=Cc3c4c(O)c5c(O)c(C)c6c(c5c3O)C(=O)C(C)(O/C=C/C(OC)C(C)C(OC(C)=O)C(C)C(O)C(C)C(O)C(C)/C=C/C=C(\C)C(=O)N4)O6)C(C)C2)c1 (stereo not given)	> 200	7.24 µM	–
CCCCCCCCCCCCCCCC(=O)OC1C(O)C(CO)OC(OC)C1NC(=O)N(CCCl)N=O (stereo not given)	> 12.6	> 12.6 µM	–
CCCCCCCCCCC(c1cc(Cl)c(O)c(C(=O)O)c1)c1cc(Cl)c(O)c(C(=O)O)c1	> 1480	79.4 µM	–
CC(CC(=O)Nc1ccc(NC(=O)CC(C)N=NC(N)=O)cc1)N=NC(N)=O (stereo not given)	> 129	> 129 µM	–
c1ccc2c(c1)Nc1ccccc1O2	> 97.7	23.4 µM	–
O=c1[nH][nH]c(=O)n1Cc1ccccc1Cn1c(=O)[nH][nH]c1=O	> 100	> 100 µM	–
O=Nc1ccc2ccccc2c1O	> 200	4.27 µM	–
COc1ccc(/C(C#N)=C(/N)SCc2ccccc2Cl)cc1	–	–	inactive
N#C/C(=C\c1cc(Cl)cc(Cl)c1)c1ccccn1	> 200	8.91 µM	–
C1COC(N2CC3CCC(CC3)C2)=N1	> 200	> 200 µM	–
O=C(O)[C@H](CSSC[C@@H](C(=O)O)N1C(=O)c2ccccc2C1=O)N1C(=O)c2ccccc2C1=O	> 200	> 200 µM	–
CC1(C)CC(=O)c2c(nc3ccc4ccccc4c3c2-c2ccc(NC(=O)CCCCCCCCC(=O)Nc3ccc(-c4c5c(nc6ccc7ccccc7c46)CC(C)(C)CC5=O)cc3)cc2)C1	> 100	> 100 µM	–
O=c1c(O)c(O)c1=O	–	–	inactive
NCCCCCNOCCCN	> 200	132 µM	–
Oc1c2c(c(O)c3ccccc13)=N[C@@H](c1ccccc1)[C@H](c1ccccc1)N=2	–	–	inactive
NC(CSSCC(N)C(=O)NC(Cc1ccccc1)C(=O)O)C(=O)NC(Cc1ccccc1)C(=O)O (stereo not drawn) (I: H-Cys-Phe-OH / II: H-Cys-Phe-OH; disulfide I:1-II:1; configuration not given here)	> 200	> 200 µM	–
NNC1=Nc2ccccc2N=C2CCSCC21 (stereo not given)	> 200	178 µM	–
[N-]=[N+]=Nc1nc2ccccc2c(N=[N+]=[N-])c1Cl	> 200	132 µM	–
O=c1[nH]nc(Nc2ccccc2)c2nnn(Cc3ccccc3)c12	–	–	inactive
CCN1C[C@]2(COC)CCC(O)C34[C@@H]5C[C@@H]6C(OC(C)=O)[C@@H]5[C@](OC(C)=O)(C[C@@H]6OC)[C@@H](C(OC)[C@@H]32)[C@H]14 (stereo not given in full)	–	–	inactive

Structure (SMILES)	EC50 [µM]	IC50	outcome
CCOP(=O)(OCC)C(F)(F)CC1CCCCC1	> 200	170 µM	–
Cc1ccc2cc([N+](=O)[O-])c3ccc(C)nc3c2n1.Cc1ccc2cc([N+](=O)[O-])c3ccc(C)nc3c2n1.O=C1OC(C(O)C[O-])C(O)=C1O.[Cu+]	> 12.6	1.82 µM	–
COc1ccc(S(=O)Cc2ccc(C(=O)O)cc2[N+](=O)[O-])cc1 (stereo not given)	> 741	631 µM	–
Cn1c(N)c(N=O)c(=O)n(C)c1=S	> 200	> 200 µM	–
CCOP(=O)(OCC)/C(C#N)=C\c1ccc(OC(C)=O)cc1	> 562	> 562 µM	–
O=c1oc2cc(O)ccc2c2[nH]c3cc(O)ccc3c12	> 97.7	17 µM	–
CC1=CCC(C)=Nc2nc3ccccc3n21	> 200	> 200 µM	–
CC12CC3C(CC1SCC(=O)O2)C3(C)C (stereo not given)	> 302	> 302 µM	–
O=C(O)CN1CCN2CCOCCOCCN(CC1)CCN(CC(=O)O)CC2	> 200	34.7 µM	–
COCC(C#N)NC1CC(OC2CC(O)(C(=O)CO)Cc3c(O)c4c(c(O)c32)C(=O)c2c(OC)cccc2C4=O)OC(C)C1O (stereo not given)	> 0.2	0.00912 µM	–
O=C1C=CC2OC(c3ccccc3)C(O)C2O1 (stereo not given)	> 1070	11.5 µM	–
CC(=O)OC12/C(=N/O)CCCCCC1c1ccccc12 (stereo not given)	> 200	> 200 µM	–
CCN(CC)CCCCCCNc1cc(OC)cc2c(C)ccnc12	> 603	19.5 µM	–
CCOC(=O)c1ccc(CS(=O)(=O)c2ccc([N+](=O)[O-])cc2)c([N+](=O)[O-])c1	> 91.2	60.3 µM	–
CCOc1ccc(-n2c(=O)c(N=Nc3ccccc3Cl)c(O)n(-c3ccc(Br)cc3)c2=S)cc1	> 174	> 174 µM	–
CCOC(=O)C1(c2ccccc2)CCC(=O)CC1	> 380	> 380 µM	–
N#CC(C#N)=Cc1cc(Cl)ccc1O	> 200	29.5 µM	–
CCCCCC(C/C=N/N(C)C)C(O)(C(F)(F)F)C(F)(F)F (stereo not given)	> 200	14.5 µM	–
O=C(CC1(O)C(=O)Nc2c(Cl)cccc21)c1ccccc1 (stereo not given)	> 832	158 µM	–
CC[C@@H]1OC2(C)CC(S(=O)(=O)c3ccccc3)CC1O2 (stereo not given in full)	26.3	170 µM	–
CCCc1cc(=O)oc2c3c(c4c(c12)OC(C)(C)C=C4)O[C@H](C)[C@H](C)[C@@H]3O	> 87.1	6.46 µM	–

Structure (SMILES)	EC50 [µM]	IC50	outcome
CC1=C(C)C(=O)c2c(cc3c4ccccc4ccn23)C1=O	–	–	inactive
CC1=[N+]([O-])c2ccccc2C(=O)C1=O	–	–	inactive
CC[C@H]1OC(=O)[C@H](C)[C@@H](OC2CC(C)(OC)C(O)C(C)O2)[C@H](C)[C@@H](OC2OC(C)CC(N(C)C)C2OC(=O)CCC2CCCC2)[C@](C)(O)C[C@@H](C)C(=O)[C@H](C)[C@@H](O)[C@]1(C)O (stereo not given in full)	> 100	40.7 µM	–
O=[N+]([O-])c1ccc(-c2cn3nc(-c4ccccc4)c(-c4ccccc4)nc3n2)cc1	> 13.2	> 13.2 µM	–
Cc1oc2nc(N(C)C)n3cnnc3c2c1C	–	–	inactive
O=C(NC(=Nc1ccccc1)SCSC(=Nc1ccccc1)NC(=O)c1ccccc1Cl)c1ccccc1Cl	> 200	30.9 µM	–
C[C@@H]1C[C@@H]2OC(=O)[C@]3(C)[C@H]2[C@@H](OC3(C)O)[C@]2(C)C(=O)C=C[C@@H]12 (stereo not given in full)	> 316	5.75 µM	–
COC1/C=C/OC2(C)Oc3c(C)c(O)c4c(O)c(c(/C=N/N5C(C)CN(Cc6ccc([N+](=O)[O-])cc6)CC5C)c(O)c4c3C2=O)NC(=O)/C(C)=C\C=C\C(C)C(O)C(C)C(O)C(C)C(OC(C)=O)C1C (stereo not given)	> 200	7.59 µM	–
CC1COS(=O)N1c1ccccc1 (stereo not given)	> 479	> 479 µM	–
CC1(C)C2CCC1(C)[C@H](O)[C@H]2Nc1cc(C(F)(F)F)cc(C(F)(F)F)c1 (stereo not given in full)	> 20	0.513 µM	–
CCOc1cccc(C=Nc2ccccc2SSc2ccccc2N=Cc2cccc(OCC)c2O)c1O	> 100	5.13 µM	–
CC1Cc2c(N)nc(N3CCOCC3)nc2NC1=O (stereo not given)	–	–	inactive
COC(=O)/C(=C\c1ccc(N(CCC#N)CCC#N)cc1)NC(=O)c1cc([N+](=O)[O-])ccc1Cl	> 74.1	> 74.1 µM	–
CC1=N/C(=C\c2cccc(Cl)c2)C(=O)O1	> 85.1	> 85.1 µM	–
COc1cc(NCc2ccc3nc(N)nc(N)c3c2C)cc(OC)c1OC (tested in a mixture with another compound)	> 4.47	0.00363 µM	–
CC(=O)N1C(c2[nH]c3ccccc3c2-c2ccccc2)CCN1c1ccccc1 (stereo not given)	> 200	74.1 µM	–
CCSSC12CCCN1C(=O)C(C)N(C)C2=O (stereo not given)	> 200	20.4 µM	–
O=C1CSC(c2ccccc2[N+](=O)[O-])N1c1ccc(-c2ccc(-n3c(-c4ccccc4)nc4ccccc4c3=O)cc2)cc1 (stereo not given)	> 200	95.5 µM	–
